“Also recorded” adds a separate entry of the source. Counter-ions that a name gives are not always drawn.
Legend:
[1] = tested on: cardiac contractility; experiment: Cardiac contractility (inotropic effect), intravenous infusion, anesthetized open-chest dogs, strain gauge arch on right ventricle; format: in vivo; settings: for Inotropic Potency Relative to Dobutamine, Mean ± S.E.: i.v. infusion, based on CC50 (rate that increases contractility by 50%)
Method: (§1) The data in FIGS. 1 and 2 and Table 2 were obtained on dogs anesthetized with sodium pentobarbital (30 mg/kg, i.v.). The animals were placed on artificial respiration and the chest was opened to expose the heart. A Walton-Brodie strain gauge arch was sutured to the right ventricle for measurement of cardiac contractility. Arterial blood pressure was measured from a catheter placed in the abdominal aorta. Cardiac contractility and arterial pressure were recorded continuously on a Grass polygraph. All drugs were dissolved and infused intravenously in 0.9% NaCl solution.

[2] = tested on: diastolic blood pressure; experiment: Arterial blood pressure change, intravenous infusion, anesthetized open-chest dogs; format: in vivo; settings: for Blood Pressure, Mean ± S.E. (change in diastolic blood pressure): dose 4 times larger than CC50, i.v.; for effect on blood pressure: i.v.
Description: To illustrate the structural specificity of the compounds of the invention, four close structural analogs of Compound I were synthesized and their activity compared to that of Compound I. In these tests dobutamine was used as a standard so that Compound I and the four structural analogs could be compared on a common basis. FIGS. 1 and 2 graphically compares dobutamine, Compound I and Compound V (the closest structural analog of dobutamine and Compound I).
as §1
Blood Pressure = change in diastolic blood pressure caused by a dose 4
times larger than CC50 -

[3] = tested on: left ventricular dP/dt; experiment: Inotropic response (left ventricular dP/dt) after buccal administration, anesthetized dogs; format: in vivo
Description: The dogs were anesthetized with sodium pentobarbital as described above and a Millar® transducer-tip catheter positioned in the left ventircle after introduction through the left carotid artery. Left ventricular pressure was obtained from this catheter and electronically differentiated to obtain dP/dt.
The dogs were placed on their backs, and their heads and noses positioned so that their hard palates were level. After an appropriate period to collect control dP/dt values, the test drug was applied to the hard palate. The test drugs were made up in a solution of 50% ethanol in distilled water adjusting concentrations so that the desired dose was contained in 2.5 ml of solution. The drug solution was applied to a 100 mm^2 area of the hard palate contained by fitting parafilm over the drug solution lying on the palate.

[4] = tested on: cardiac contractility; experiment: Intravenous infusion rates required to increase cardiac contractility by 50%, anesthetized dogs; format: in vivo
[5] = Buccal absorption of ester relative to parent (buccal versus intravenous potency comparison); format: in vivo, dogs; settings: buccal versus i.v. potency, Compound I-A vs Compound I
Description: Yet by the buccal route of administration, the ester was more than twice as potent as its parent. Therefore, the ester derivative was better absorbed through the buccal mucosa by a factor of more than eighteen times than was the parent compound.

[6] = Blood (plasma) levels during intravenous infusion in anesthetized dog, HPLC with electrochemical detection; format: in vivo; settings: i.v. infusion 20 ug/kg/min; for concentration at 10 min / concentration at 20 min / concentration at 0.5 h: plasma, iv; for concentration at 10 min: infusion time 10 mins; for concentration at 20 min: infusion time 20 mins; for concentration at 0.5 h: infusion time 30 mins
Method: The data in Table 1 were obtained from a dog anesthetized with sodium pentobarbital (30 mg/kg, i.v.). The right femoral vein was cannulated for administration of drug and the left femoral vein was used for withdrawal of blood samples. All blood samples were collected in heparinized chilled tubes. The blood was centrifuged to separate red cells and the plasma was frozen.
After obtaining a control blood sample, dobutamine infusion at the rate of 20 ug/kg/min was maintained for 30 mins. During the infusion, blood samples were drawn at 10, 20, and 30 mins. One hour after completion of the dobutamine infusion, a second control sample of blood was drawn and an infusion of Compound I at 20 ug/kg/min was begun. Samples of blood were taken during the Compound I infusion at 10, 20, and 30 mins.
The concentrations of Compound I and dobutamine in plasma were measured using HPLC with electrochemical detection. Chromatography was performed using a reverse-phase octadecylsilane (C18) column attached to an amperometric detector equipped with a glassy carbon electrode at a potential of +600 mV. The mobile phase consisted of acetonitrile:pH 3 buffer (15:85); the buffer (pH 3) contained 0.035M KH2 PO4, 0.003M citric acid and 0.002M Na2 EDTA. At a flow rate of 1.5 ml/min, Compound I, dobutamine and the internal standard for the assay (dioxymethylene derivative of dobutamine) eluted in […] respectively.
In the assay procedure, control plasma (1 mil) spiked with 0, 20, 100, 300 and 500 ng/ml test drug was added to silanized glass tubes (13×128 mm) containing 100 ng of the internal standard as a solution in 100 ul of 5M K2 HPO4. The samples were mixed and extracted twice with 4 ml of ethyl acetate. Following centrifugation, the combined organic extracts were evaporated, the residue dissolved in […] of mobile phase and a 10-15 ul aliquot injected into the chromatograph. Calibration curves were constructed by plotting the peak height ratios of test drug to the internal standard over the concentration range and interpolation of unknown plasma concentrations from the fitted line.

[7] = tested on: cardiac contractility; experiment: Inotropic response (LV dP/dt) when swallowed, conscious instrumented dogs; format: in vivo; settings: 5 mg/kg oral capsule
Method: To test the effectiveness of Compound I when swallowed, five previously trained dogs, instrumented with a miniature pressure transducer for measurement of cardiac contractility were used. On different days the conscious dogs were tested with placebo, dobutamine (5 mg/kg) or Compound I (5 mg/kg).
Several months prior to doing the procedure described above, a minature pressure transducer was mounted in the left ventricle of each dog's heart. The dogs were trained to swallow capsules and lie quietly for up to 3 hours. During this time, continuous recording of left ventricular pressure was made on a Grass polygraph. Also recorded was an electronically differentiated signal on the left ventricular pressure. This differential is referred to as LV dP/dt. This LV dP/dt is the rate that the left ventricle develops pressure and is accepted as an index of cardiac contractility.
On each day of testing the dogs were forced to swallow a gelatin capsule that was either empty (placebo), or contained dobutamine (5 mg/kg) or Compound I (5 mg/kg). Recordings were then made of cardiac contractility for 2 hours after the dog swallowed the capsule.

[8] = background; cited from earlier work
[9] = tested on: cardiac beta1 adrenergic receptors; settings: background, Tuttle and Mills, Circ. Res. 36: 185, 1975; cited from earlier work

## NC(=O)c1cccc(CCCNCCc2ccc(O)c(O)c2)c1 [Compound III]
[1]; i.v.
  inotropic potency: potency was reduced
[1]
  Inotropic Potency Relative to Dobutamine, Mean ± S.E.: 1.4 ± 1
[2]
  Blood Pressure, Mean ± S.E. (change in diastolic blood pressure): 22.3 ± 16.2
  effect on blood pressure: undesired elevation in blood pressure

## CC(CCc1cccc(C(N)=O)c1)NCCc1ccc(OC(=O)C(C)(C)C)c(OC(=O)C(C)(C)C)c1 (stereo not shown) [Compound I-B]
[3]; 1.39 mg/kg
  Inotropic Response, Percent Change from Control, Mean ± S.E. (peak change in left ventricular dP/dt): 13 ± 7%
[3]; anesthetized dogs
  inotropic response, buccal: small response

## CC(CCc1cccc(C(N)=O)c1)NCCc1ccc(OC(=O)C(C)C)c(OC(=O)C(C)C)c1 (stereo not shown) [Compound I-A, N[2-(3,4-diisobutyryloxyphenyl)ethyl]-1-methyl-3-(3-carbamoylphenyl)propylamine hydrochloride]
[3]; 1.39 mg/kg
  Inotropic Response, Percent Change from Control, Mean ± S.E. (peak change in left ventricular dP/dt): 61 ± 3%
[3]; anesthetized dogs
  inotropic response, buccal: the most effective by this route
[3]; molar basis, anesthetized dogs
  buccal potency relative to Compound I: more than twice
[4]; Dog #1, i.v.
  Dose Ratio (Compound I-A to Compound I): 9.6
  Intravenous infusion rate required to increase cardiac contractility by 50%: 2.8 µg/kg/min
[4]; Dog #2, i.v.
  Dose Ratio (Compound I-A to Compound I): 12.9
  Intravenous infusion rate required to increase cardiac contractility by 50%: 1.25 µg/kg/min
[4]; intravenous infusion
  times less potent than parent catechol (Compound I): more than nine
[5]
  factor of better absorption through the buccal mucosa than parent compound: more than eighteen

## CC(CCc1ccc(O)cc1)NCCc1ccc(O)c(O)c1 (stereo not shown) [Dobutamine, reference compound]
[6]
  concentration at 10 min: 155 ng/mL
  concentration at 20 min: 176 ng/mL
  concentration at 0.5 h: 158 ng/mL
[2]
  Blood Pressure, Mean ± S.E. (change in diastolic blood pressure): 7.8 ± 4.5
[7]
  inotropic response when swallowed: did not produce a response significantly better than the placebo
[3]; 5 mg/kg
  Inotropic Response, Percent Change from Control, Mean ± S.E. (peak change in left ventricular dP/dt): 2.7 ± 2%
[8]
  clearance from the blood: rapidly cleared from the blood
[9]
  cardioselectivity: cardioselective in its actions

## CC(CCc1ccc(C(N)=O)cc1)NCCc1ccc(O)c(O)c1 (stereo not shown) [Compound V]
[1]; i.v.
  cardiac potency relative to that with carbamyl group in meta position (Compound I): less than a third
[1]
  Inotropic Potency Relative to Dobutamine, Mean ± S.E.: 2.9 ± 0.3
[2]
  effect on blood pressure: dangerous rise in blood pressure

## CC(CCc1ccc(C(N)=O)cc1)NCCc1ccc(OC(=O)C(C)C)c(OC(=O)C(C)C)c1 (stereo not shown) [Compound V-A]
[3]; 1.39 mg/kg
  Inotropic Response, Percent Change from Control, Mean ± S.E. (peak change in left ventricular dP/dt): No response
[3]; anesthetized dogs
  inotropic response, buccal: no response

## NC(=O)c1cccc(CCNCCc2ccc(O)c(O)c2)c1 [Compound II]
[1]; i.v.
  inotropic potency: not significantly better than that of dobutamine
[1]
  Inotropic Potency Relative to Dobutamine, Mean ± S.E.: 1.5 ± 0.1
[2]
  Blood Pressure, Mean ± S.E. (change in diastolic blood pressure): -8 ± 5
  effect on blood pressure: no rise in blood pressure

## NC(=O)c1ccc(CCNCCc2ccc(O)c(O)c2)cc1 [Compound IV]
[1]
  Inotropic Potency Relative to Dobutamine, Mean ± S.E.: 1.38 ± 0.2
[2]
  Blood Pressure, Mean ± S.E. (change in diastolic blood pressure): 26 ± 10
  effect on blood pressure: the blood pressure side effect reappears

## CC(CCc1cccc(C(N)=O)c1)NCCc1ccc(O)c(O)c1 (stereo not shown) [Compound I, N-[2-(3,4-dihydroxyphenyl)ethyl]-1-methyl-3-(3-carbamoylphenyl)propylaminehydrochloride]
[6]
  Blood levels compared with dobutamine: higher blood levels than dobutamine
  concentration at 10 min: 417 ng/mL
  concentration at 20 min: 451 ng/mL
  concentration at 0.5 h: 874 ng/mL
[1]; i.v.
  dose relative to that of dobutamine required for equivalent inotropic effect: about a tenth
  times more potent than dobutamine: about ten
[1]
  Inotropic Potency Relative to Dobutamine, Mean ± S.E.: 9.1 ± 2.4
[2]
  Blood Pressure, Mean ± S.E. (change in diastolic blood pressure): 5.3 ± 4.5
  effect on blood pressure: no significant change in blood pressure; also recorded: no greater than that of dobutamine
[7]
  inotropic response when swallowed: strong inotropic response; also recorded: effective when swallowed
  persistence of inotropic response when swallowed: more than two
[3]; 2 mg/kg
  Inotropic Response, Percent Change from Control, Mean ± S.E. (peak change in left ventricular dP/dt): 16.6 ± 6%
[4]; Dog #1, i.v.
  Intravenous infusion rate required to increase cardiac contractility by 50%: 0.29 µg/kg/min
[4]; Dog #2, i.v.
  Intravenous infusion rate required to increase cardiac contractility by 50%: 0.097 µg/kg/min
